Test results from patent US9180214B1, “Gonadotropin-releasing hormone receptor-targeting peptides and their use to treat and diagnose cancer” (STC.UNM, priority 2011, dated 2015).
Values belong to the molecule of their own block, whether it stands above or below them. Positions of bridges follow the written chain, without caps; N, C: chain ends. Non-standard residues stand in square brackets, D forms with d. Residues, ends and D or L forms follow the SMILES beside them. Chains are numbered I, II in the order given. *: point of attachment. DOTA = O=C(O)CN1CCN(CC(=O)O)CCN(CC(=O)*)CCN(CC(=O)O)CC1; pGlu = O=C1CC[C@@H](C(=O)O)N1; Ahx = NCCCCCC(=O)O

What was measured:
[1] = biological target: T1, human GnRH receptor membrane preparations (Homo sapiens, UniProt P30968); assay: In vitro competitive GnRH receptor binding assay with ^125I-[D-Trp^6]-LH-RH
T1 construct: purchased Millipore, Inc (Billerica, Mass.)
T1 sequence (P30968 1-328): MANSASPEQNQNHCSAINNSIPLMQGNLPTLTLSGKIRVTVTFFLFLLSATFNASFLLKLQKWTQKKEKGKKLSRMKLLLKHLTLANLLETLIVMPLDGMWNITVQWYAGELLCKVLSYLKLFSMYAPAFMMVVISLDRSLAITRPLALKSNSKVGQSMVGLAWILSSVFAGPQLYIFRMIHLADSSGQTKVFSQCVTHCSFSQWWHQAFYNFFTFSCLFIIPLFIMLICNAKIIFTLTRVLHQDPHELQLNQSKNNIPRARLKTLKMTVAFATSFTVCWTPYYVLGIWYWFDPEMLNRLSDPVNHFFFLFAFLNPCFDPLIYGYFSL
Experimental: The GnRH receptor binding affinities (IC50 values) of DOTA-Ahx-(D-Lys^6-GnRH1), DOTA-Ahx-(D-Lys^6-GnRH2) and DOTA-Ahx-(L-Lys^6-GnRH3) were determined by in vitro competitive binding assay according to the published procedure^32 with modifications. Briefly, 5 μL of Millipore ChemiScreen™ human GnRH membrane preparations were incubated at 25° C. for 3 h with approximately 30,000 counts per minute (cpm) of ^125I-[D-Trp^6]-LH-RH in the presence of 10^−11 to 10^−5 M of each peptide in 95 μL of binding medium {50 mM N-(2-hydroxyethyl)-piperazine-N′-(2-ethanesulfonic acid), 5 mM MgCl2, 1 mM CaCl2, pH 7.4, 0.2% bovine serum albumin (BSA)}. After the incubation, 800 μL of ice-cold washing buffer (50 mM N-(2-hydroxyethyl)-piperazine-N′-(2-ethanesulfonic acid), 500 mM NaCl, pH 7.4, 0.1% BSA) was added to each mixture. Each resulting mixture was filtered through a GF/C filter (Whatman, Clifton, N.J.) pre-soaked in 1% polyethylenimine. Each filter was rinsed with 1 mL of ice-cold washing buffer for three times. The activities on the filters were measured in a Wallac 1480 automated gamma counter (PerkinElmer, Waltham, Mass.). The IC50 value of each peptide was calculated using Prism software (GraphPad Software, La Jolla, Calif.).

[2] = Urinary metabolites by RP-HPLC in DU145 xenografted nude mouse; format: in vivo; conditions: 2 h post-injection
Experimental: One hundred microliters of HPLC purified ^111In-DOTA-Ahx-(D-Lys^6-GnRH1) (2.4 MBq) was injected into a DU145 human prostate cancer-xenografted nude mouse through the tail vein. At 2 h post-injection, the mouse was sacrificed and the urine was collected for metabolites analysis. The urine was centrifuged at 16,000 g for 5 min prior to the HPLC analysis. The radioactive metabolites in the urine were analyzed by injecting aliquots of the urine into HPLC. A 20-minute gradient of 15-25% acetonitrile/20 mM HCl was used for the urine analysis.

[3] = In vitro mouse serum stability by RP-HPLC; format: in vitro ADME; conditions: 37° C., 2 h
Experimental: In vitro serum stability of ^111In-DOTA-Ahx-(D-Lys^6-GnRH1) was determined by incubation in mouse serum at 37° C. for 2 h and monitored for degradation by RP-HPLC. Briefly, 100 μL of HPLC-purified ^111In-DOTA-Ahx-(D-Lys^6-GnRH1) solution (˜3.7 MBq) was added into 100 μL of mouse serum (Sigma-Aldrich Corp, St. Louis, Mo.) and incubated at 37° C. for 2 h. After the incubation, 200 μL of a mixture of ethanol and acetonitrile (V:V=1:1) was added to precipitate the serum. The resulting mixture was centrifuged at 10,000 g for 5 min to collect the supernatant. The supernatant was purged with N2 gas for 30 min to remove the ethanol and acetonitrile. The resulting sample was mixed with 500 μL of water and injected into RP-HPLC for analysis using the gradient described above.

[4] = tested on: DU145 human prostate cancer-xenografted nude mice; assay: Biodistribution in DU145 human prostate cancer-xenografted nude mice; format: in vivo, mouse; conditions: DU145 xenograft
Experimental: All the animal studies were conducted in compliance with Institutional Animal Care and Use Committee approval. The pharmacokinetics of ^111In-DOTA-Ahx-(D-Lys^6-GnRH1) was determined in DU145 human prostate cancer-xenografted male athymic nude mice (Harlan, Indianapolis, Ind.). The nude mice were subcutaneously inoculated with 1×10^7 DU145 cells on the right flank of each mouse to generate DU145 xenografted tumors. The tumor weights reached approximately 0.3 g at 18 days post cell inoculation. Each tumor-bearing mouse was injected with 0.037 MBq of 111In-DOTA-Ahx-(D-Lys6-GnRH1) via the tail vein. Groups of 5 mice were sacrificed at 0.5, 2, 4 and 24 h post-injection, and tumors and organs of interest were harvested, weighed and counted. Blood values were taken as 6.5% of the whole-body weight. To determine the tumor imaging property of ^111In-DOTA-Ahx-(D-Lys^6-GnRH1), approximately 33.3 MBq of ^111In-DOTA-Ahx-(D-Lys^6-GnRH1) was injected into a DU145 human prostate cancer-xenografted nude mouse (18 days post the cell inoculation) via the tail vein. The mouse was sacrificed for small animal SPECT/CT (Nano-SPECT/CT®, Bioscan) imaging at 0.5 h post-injection. The CT imaging was immediately followed by the whole-body SPECT imaging. The SPECT scans of 24 projections were acquired. Reconstructed SPECT and CT data were visualized and co-registered using InVivoScope (Bioscan, Washington D.C.).

[5] = tested on: MDA-MB-231 human breast cancer-xenografted nude mice; assay: Biodistribution in MDA-MB-231 human breast cancer-xenografted nude mice; format: in vivo, mouse; conditions: MDA-MB-231 xenograft
Experimental: All the animal studies were conducted in compliance with Institutional Animal Care and Use Committee approval. The pharmacokinetics of ^111In-DOTA-Ahx-(D-Lys^6-GnRH1) was determined in MDA-MB-231 human breast cancer-xenografted female athymic nude mice (Harlan, Indianapolis, Ind.). The nude mice were subcutaneously inoculated with 1×10^7 MDA-MB-231 cells on the right flank of each mouse to generate MDA-MB-231 xenografted tumors. The tumor weights reached approximately 0.3 g at 18 days post cell inoculation. Each tumor-bearing mouse was injected with 0.037 MBq of ^111In-DOTA-Ahx-(D-Lys^6-GnRH1) via the tail vein. Groups of 5 mice were sacrificed at 0.5, 2, 4 and 24 h post-injection, and tumors and organs of interest were harvested, weighed and counted. Blood values were taken as 6.5% of the whole-body weight.

human GnRH receptor [6] = biological target: T2, human GnRH receptor (human, UniProt P30968 1-328); assay: ratio of IC50 values from the competitive binding assay
T2 construct: whole, on cells; also called gonadotropin-releasing hormone (GnRH) receptor; ChemiScreen Human GnRH receptor membrane preparations
T2 sequence (looked up): T1 sequence (P30968 1-328)

human GnRH receptor [7] = biological target: T2, human GnRH receptor; assay: competitive binding against 125I-[D-Trp6]-LH-RH on human GnRH receptor membrane preparations, filter assay
Experimental: The GnRH receptor binding affinities (IC$50$ values) of DOTA-Ahx-(D-Lys^6-GnRH1), DOTA-Ahx-(D-Lys^6-GnRH2) and DOTA-Ahx-(L-Lys^6-GnRH3) were determined by in vitro competitive binding assay according to the published procedure[32] with modifications. […] After the incubation, 800 μL of ice-cold washing buffer (50 mM N-(2-hydroxyethyl)-piperazine-N'-(2-ethanesulfonic acid), 500 mM NaCl, pH 7.4, 0.1% BSA) was added to each mixture. Each resulting mixture was filtered through a GF/C filter (Whatman, Clifton, N.J.) pre-soaked in 1% polyethylenimine. Each filter was rinsed with 1 mL of ice-cold washing buffer for three times. The activities on the filters were measured in a Wallac 1480 automated gamma counter (PerkinElmer, Waltham, Mass.). The IC$50$ value of each peptide was calculated using Prism software (GraphPad Software, La Jolla, Calif.).

GnRH receptor binding affinity (in words) [1]: low nanomolar
Molecule: CC(C)C[C@H](NC(=O)[C@@H](CCCCNC(=O)CCCCCNC(=O)CN1CCN(CC(=O)O)CCN(CC(=O)O)CCN(CC(=O)O)CC1)NC(=O)[C@H](Cc1ccc(O)cc1)NC(=O)[C@H](CO)NC(=O)[C@H](Cc1c[nH]c2ccccc12)NC(=O)[C@H](Cc1c[nH]cn1)NC(=O)[C@@H]1CCC(=O)N1)C(=O)N[C@@H](CCCNC(=N)N)C(=O)N1CCC[C@H]1C(=O)NCC(N)=O [DOTA-Ahx-(D-Lys^6-GnRH1)]

decrease of GnRH receptor binding affinity versus DOTA-Ahx-(D-Lys^6-GnRH1) [1]: 293 fold
Molecule: CC(C)C[C@H](NC(=O)[C@@H](CCCCNC(=O)[C@H](Cc1ccc(O)cc1)NC(=O)[C@H](CO)NC(=O)[C@H](Cc1c[nH]c2ccccc12)NC(=O)[C@H](Cc1c[nH]cn1)NC(=O)[C@@H]1CCC(=O)N1)NC(=O)CCCCCNC(=O)CN1CCN(CC(=O)O)CCN(CC(=O)O)CCN(CC(=O)O)CC1)C(=O)N[C@@H](CCCNC(=N)N)C(=O)N1CCC[C@H]1C(=O)NCC(N)=O [DOTA-Ahx-(D-Lys^6-GnRH2)] (I: {DOTA-Ahx}-[dK]LRPG-NH2 / II: [pGlu]HWSY; amide I:1-II:C)

decrease of GnRH receptor binding affinity versus DOTA-Ahx-(D-Lys^6-GnRH1) [1]: 119 fold
Molecule: CC(C)C[C@H](NC(=O)[C@H](CCCCNC(=O)CCCCCNC(=O)CN1CCN(CC(=O)O)CCN(CC(=O)O)CCN(CC(=O)O)CC1)NC(=O)[C@H](Cc1ccc(O)cc1)NC(=O)[C@H](CO)NC(=O)[C@H](Cc1c[nH]c2ccccc12)NC(=O)[C@H](Cc1c[nH]cn1)NC(=O)[C@@H]1CCC(=O)N1)C(=O)N[C@@H](CCCNC(=N)N)C(=O)N1CCC[C@H]1C(=O)NCC(N)=O [DOTA-Ahx-(L-Lys^6-GnRH3)]

metabolized into two compounds with higher polarity (urine) [2]: 90.2% | remained intact in urine [2]: 9.8% | stability in mouse serum [3]: stable | Kidneys, percent injected dose/gram ([4]; 0.5 h post-injection): 10.93±1.53 % ID/g | Tumor, percent injected dose/gram ([4]; 0.5 h post-injection): 1.27±0.40 % ID/g | Kidneys, percent injected dose/gram ([4]; 2 h post-injection): 6.41±0.34 % ID/g | Tumor, percent injected dose/gram ([4]; 2 h post-injection): 0.55±0.23 % ID/g | Kidneys, percent injected dose/gram ([4]; 4 h post-injection): 7.29±0.90 % ID/g | Tumor, percent injected dose/gram ([4]; 4 h post-injection): 0.38±0.16 % ID/g | Kidneys, percent injected dose/gram ([4]; 24 h post-injection): 2.72±0.64 % ID/g | Tumor, percent injected dose/gram ([4]; 24 h post-injection): 0.31±0.09 % ID/g | Kidneys, percent injected dose/gram ([5]; 0.5 h post-injection): 15.39±4.59 % ID/g | Tumor, percent injected dose/gram ([5]; 0.5 h post-injection): 1.76±0.58 % ID/g | Blood, percent injected dose/gram ([5]; 2 h post-injection): 0.20±0.03 % ID/g | Kidneys, percent injected dose/gram ([5]; 2 h post-injection): 8.88±1.26 % ID/g | Liver, percent injected dose/gram ([5]; 2 h post-injection): 0.77±0.06 % ID/g | Tumor, percent injected dose/gram ([5]; 2 h post-injection): 0.29±0.10 % ID/g | Kidneys, percent injected dose/gram ([5]; 4 h post-injection): 9.28±1.18 % ID/g | Liver, percent injected dose/gram ([5]; 4 h post-injection): 0.97±0.13 % ID/g | Tumor, percent injected dose/gram ([5]; 4 h post-injection): 0.15±0.05 % ID/g | Kidneys, percent injected dose/gram ([5]; 24 h post-injection): 4.43±1.67 % ID/g | Liver, percent injected dose/gram ([5]; 24 h post-injection): 0.59±0.16 % ID/g | Tumor, percent injected dose/gram ([5]; 24 h post-injection): 0.18±0.07 % ID/g
Molecule: CC(C)C[C@H](NC(=O)[C@@H](CCCCNC(=O)CCCCCNC(=O)CN1CCN(CC(=O)O)CCN(CC(=O)O)CCN(CC(=O)O)CC1)NC(=O)[C@H](Cc1ccc(O)cc1)NC(=O)[C@H](CO)NC(=O)[C@H](Cc1c[nH]c2ccccc12)NC(=O)[C@H](Cc1cnc[nH]1)NC(=O)[C@@H]1CCC(=O)N1)C(=O)N[C@@H](CCCNC(=N)N)C(=O)N1CCC[C@H]1C(=O)NCC(N)=O [^111In-DOTA-Ahx-(D-Lys^6-GnRH1), metal not drawn]

fold decrease of GnRH receptor binding affinity against DOTA-Ahx-(D-Lys^6-GnRH1) (human GnRH receptor [6]): 293 fold
Molecule: DOTA-Ahx-(D-Lys^6-GnRH2) (peptide)

fold decrease of GnRH receptor binding affinity against DOTA-Ahx-(D-Lys^6-GnRH1) (human GnRH receptor [6]): 119 fold
B1: DOTA-Ahx-(L-Lys^6-GnRH3) (peptide)
peptide: XHWSYKLRPG
modifications: pGlu at 1; L-Lys at 6 carrying DOTA-Ahx on its epsilon amino group; C-terminal amide

IC50 (human GnRH receptor [7]): 36.1 nM
B2: DOTA-Ahx-(D-Lys^6-GnRH1) (peptide)
peptide: XHWSYKLRPG
modifications: pGlu at 1; D-Lys at 6 carrying DOTA-Ahx (aminohexanoic acid linker) on its epsilon amino group; C-terminal amide (Gly10-NH2)
